Source: publication PMC9699003, “Arene Variation of Highly Cytotoxic Tridentate Naphthoquinone-Based Ruthenium(II) Complexes and In-Depth In Vitro Studies” (Pharmaceutics, 2022)

Experiments:
CH1/PA-1 cells = assay: Cell cycle distribution (PI staining, flow cytometry); assay type: cell-based, human; conditions: CH1/PA-1, 24 h
Description: (§1) For the flow-cytometric determination of cell cycle distribution, CH1/PA-1 (8 × 10^4 cells/well) and SW480 (1.2 × 10^5 cells/well) cells were seeded into 12-well plates (CytoOne, tissue culture treated) in 1 mL supplemented MEM. In the first 24 h, the cells were allowed to settle and resume exponential growth. […] Gemcitabine (Sigma-Aldrich, 0.01 and 0.05 µM) and etoposide (Sigma-Aldrich, 0.25, 0.5 and 1 µM) were used as positive controls. After removal of the treatment medium, cells were washed with 1 mL PBS and trypsinized. Cells were collected in Eppendorf tubes and centrifuged (300 g, 3 min), and the supernatant was discarded. In the following step, cells were washed with 1 mL PBS and resuspended in 500 µL PI/HFS buffer (0.1% v/v Triton X-100, 0.1% w/v sodium citrate, in PBS) containing 25 µg/mL propidium iodide (PI, 1.0 mg/mL, Sigma-Aldrich). The staining was carried out overnight at 4 °C in the dark, and 200 µL of the cell suspension was loaded into 96-well round bottom plates (Falcon). Samples were measured with a Millipore Guava easyCyte 8HT flow cytometer with GuavaSoft™ software in the InCyte-modus, and 10,000 events/sample were detected. Data were analyzed with FlowJo software v 10.8.1 (Tree Star, Ashland, OR, USA) using Watson algorithm. Percentages of cells in the three cell cycle phases (G1/G0, S and G2/M) were calculated by integrating the resulting histograms of fluorescence signals (Figures S29 and S30). Experiments were repeated at least three times. For statistical evaluation, an unpaired t-test with Welch’s correction was performed by using GraphPad PRISM software.

SW480 cells = assay: as above; assay type: cell-based, human; conditions: SW480, 24 h
Description: as §1

pUC19 plasmid = assay: DNA interaction assay (dsDNA plasmid, agarose gel electrophoresis); assay type: biochemical; conditions: 50 µM; for open circular (oc) form of pUC19 (single-strand breaks): 37 °C, after 6 h of incubation, control after 6 h 3.6 ± 0.7%; for Influence on pUC19 (in words): up to 6 h
Description: The incubation was performed at 37 °C for different time intervals (15 min to 6 h) with continuous shaking. Additionally, 4 µL aliquots of a 6× DNA loading dye (Thermo Fisher) were added to the 20 µL reaction solution, and the DNA samples were separated in a 1% agarose gel in 1 × Tris-Borate-EDTA (TBE) buffer. Electrophoresis was initiated at 60 V for 5 min and continued at 120 V for 90 min in 1 × TBE buffer. For visualization of the DNA modification degree, the agarose gel was stained with ethidium bromide (EtBr) in 1 × TBE (0.75 µg/mL) for 20 min.

NQO1 (SW480 cells) = biological target: T1, NQO1 (SW480 cells) (Homo sapiens, UniProt P15559); assay: NQO1 activity assay in cell extracts after treatment; assay type: cell-based; conditions: SW480, 24 h treatment
T1 construct: impact on NQO1 activity in SW480 (left panel) and CH1/PA-1 (right panel) cell extracts after treatment; endogenous in cells; host or cells: SW480 colon carcinoma cells (ATCC)
Description: To determine NQO1 activity, SW480 and CH1/PA-1 cells were seeded into 6-well plates in densities of 2 × 10^5 cells/well in 2 mL supplemented MEM. […] The test substances were dissolved in DMSO/medium. To exclude that assay validity was compromised by the use of DMSO, cells treated with DMSO alone (at concentrations corresponding to those in substance solutions) were measured in parallel. After 24 h drug exposure, the medium was aspirated, and the cells were gently washed twice with PBS. The further steps were performed following the manual instructions of the NQO1 activity assay kit (ab184867, abcam, Cambridge, UK). Protease inhibitor phenylmethylsulfonyl fluoride (PMSF, Merck, Darmstadt, Germany) and phosphatase inhibitor PhosSTOP^TM (Roche, Basel, Switzerland) were applied. For determining the protein concentration, the Micro BCA^TM protein assay (prod # 23235, Thermo Scientific) kit was used. For NQO1 activity determination, 100 µg/mL of total protein was loaded. The development of yellow color was monitored for 5 min in 20-sec intervals with a microplate reader (BioTek ELx808) at 450 nm. The measured data were evaluated according to the instructions of the NQO1 activity assay kit: “NQO1 activity was calculated by subtracting the OD value with Inhibitor from the one without Inhibitor. The activity is expressed as the change in absorbance per minute per amount of sample loaded into the well” [30]. Data are expressed as rates of increase of mean absorbance ± SDs from three independent experiments.

[1] = HPLC-MS stability measurements in PBS; conditions: PBS pH 7.4, 20 °C, 40 µM, after 4 h
Description: 4 µL of stock solution was mixed with 990 µL of PBS buffer (pH 7.4) and 6 µL DMSO to obtain a final concentration of 40 µM. After injection, the chromatogram at 225 nm and the corresponding mass spectra (positive mode) were recorded hourly (4 h) and after 24 h at 20 °C. Peak areas were determined by integrating complex signals of the respective chromatogram. The measurements were performed with an HPLC system (Agilent Technologies, […]) equipped with a C18 column (Waters, Atlantis T3 […], 1.0 × 150 mm^2) coupled to an MS (Bruker, amaZon SL, ESI, positive mode) with a flow rate of 0.2 mL/min at 20 °C and a gradient (5–95%) with Milli-Q water/ACN.

T1 sequence (P15559 whole entry): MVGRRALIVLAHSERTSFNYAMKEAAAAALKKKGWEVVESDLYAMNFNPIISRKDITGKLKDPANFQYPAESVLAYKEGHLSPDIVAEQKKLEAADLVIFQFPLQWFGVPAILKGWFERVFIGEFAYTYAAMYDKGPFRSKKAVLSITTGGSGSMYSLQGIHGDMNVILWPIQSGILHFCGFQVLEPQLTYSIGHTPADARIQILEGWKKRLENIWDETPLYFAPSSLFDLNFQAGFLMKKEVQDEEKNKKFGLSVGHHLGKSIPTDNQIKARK

| SMILES | Cells in G1/G0 phase (CH1/PA-1 cells; 100 µM) | Cells in G2/M phase (CH1/PA-1 cells; 100 µM) | Cells in S phase (CH1/PA-1 cells; 100 µM) | Cells in G1/G0 phase (CH1/PA-1 cells; 150 µM) | Cells in G2/M phase (CH1/PA-1 cells; 150 µM) | Cells in S phase (CH1/PA-1 cells; 150 µM) | Cells in G1/G0 phase (CH1/PA-1 cells; 200 µM) | Cells in G2/M phase (CH1/PA-1 cells; 200 µM) | Cells in S phase (CH1/PA-1 cells; 200 µM) | Cells in G1/G0 phase (SW480 cells; 5 µM) | Cells in G2/M phase (SW480 cells; 5 µM) | Cells in S phase (SW480 cells; 5 µM) | open circular (oc) form of pUC19 (single-strand breaks) (pUC19 plasmid) | Cells in G1/G0 phase (SW480 cells; 1.25 µM) | Cells in G2/M phase (SW480 cells; 1.25 µM) | Cells in S phase (SW480 cells; 1.25 µM) | Cells in G1/G0 phase (CH1/PA-1 cells; 50 µM) | Cells in G2/M phase (CH1/PA-1 cells; 50 µM) | Cells in S phase (CH1/PA-1 cells; 50 µM) | Cells in G1/G0 phase (SW480 cells; 0.31 µM) | other results |
| --- | --- | --- | --- | --- | --- | --- | --- | --- | --- | --- | --- | --- | --- | --- | --- | --- | --- | --- | --- | --- | --- |
| CC1=C([O-])C([O-])(n2cccn2)c2ccccc2C1=O.[Ru+2].c1ccccc1 (racemic) [Compound 2] | 29.9 ± 5.7% | 37.0 ± 6.1% | 39.9 ± 1.4% | 30.8 ± 7.1% | 38.3 ± 5.3% | 36.5 ± 3.3% | 29.7 ± 8.5% | 33.0 ± 3.0% | 39.1 ± 0.8% | 36.0 ± 6.7% | 32.0 ± 2.6% | 34.2 ± 3.8% | 11.8 ± 0.9% | – | – | – | – | – | – | – | Cells in G1/G0 phase (SW480 cells; 10 µM): 22.6 ± 5.7%; Cells in G2/M phase (SW480 cells; 10 µM): 40.9 ± 4.2%; Cells in S phase (SW480 cells; 10 µM): 38.8 ± 7.9%; Cells in G1/G0 phase (SW480 cells; 20 µM): 22.3 ± 6.3%; Cells in G2/M phase (SW480 cells; 20 µM): 27.9 ± 9.0%; Cells in S phase (SW480 cells; 20 µM): 52.1 ± 3.3% |
| CC1=C([O-])C([O-])(n2cccn2)c2ccccc2C1=O.Cc1ccccc1.[Ru+2] (racemic) [Compound 3] | 25.8 ± 4.6% | 40.1 ± 2.7% | 38.6 ± 1.5% | 23.1 ±7.0% | 36.9 ± 1.5% | 40.8 ± 0.6% | 24.9 ± 5.8% | 40.3 ± 2.6% | 36.4 ± 1.2% | 20.4 ± 5.9% | 28.2 ± 5.6% | 54.1 ± 3.2% | 11.7 ± 1.6% | 28.4 ± 7.8% | 35.1 ± 1.8% | 38.2 ± 7.1% | – | – | – | – | Cells in G1/G0 phase (SW480 cells; 2.5 µM): 17.6 ± 4.5%; Cells in G2/M phase (SW480 cells; 2.5 µM): 43.1 ± 7.6%; Cells in S phase (SW480 cells; 2.5 µM): 43.3 ± 7.4% |
| CC1=C([O-])C([O-])(n2cccn2)c2ccccc2C1=O.[Ru+2].c1ccc2c(c1)CCC2 (racemic) [Compound 4] | 23.9 ± 4.7% | 42.2 ± 4.7% | 38.3 ± 2.3% | – | – | – | 24.5 ± 3.8% | 40.0 ± 3.8% | 39.1 ± 3.9% | – | – | – | 12.1 ± 1.9% | 20.7 ± 5.3% | 25.0 ± 5.8% | 57.1 ± 4.5% | 25.1 ± 4.7% | 39.8 ± 2.9% | 38.4 ± 1.7% | 24.7 ± 9.2% | Cells in G2/M phase (SW480 cells; 0.31 µM): 36.1 ± 3.0%; Cells in S phase (SW480 cells; 0.31 µM): 42.1 ± 7.1%; Cells in G1/G0 phase (SW480 cells; 0.63 µM): 19.0 ± 4.6%; Cells in G2/M phase (SW480 cells; 0.63 µM): 45.8 ± 4.2%; Cells in S phase (SW480 cells; 0.63 µM): 42.0 ± 3.5%; Effect on NQO1 activity (in words) (NQO1 (SW480 cells); 10 µM): moderate suppression of enzyme activity |
| CC1=C([O-])C([O-])(n2cccn2)c2ccccc2C1=O.[Ru+2].c1ccc(-c2ccccc2)cc1 (racemic) [Compound 5] | – | – | – | – | – | – | – | – | – | – | – | – | – | – | – | – | 17.5 ± 1.8% | 46.8 ± 1.8% | 39.3 ± 1.4% | – | Cells in G1/G0 phase (CH1/PA-1 cells; 12.5 µM): 20.1 ± 5.0%; Cells in G2/M phase (CH1/PA-1 cells; 12.5 µM): 39.1 ± 5.4%; Cells in S phase (CH1/PA-1 cells; 12.5 µM): 43.1 ± 6.3%; Cells in G1/G0 phase (CH1/PA-1 cells; 25 µM): 19.2 ± 4.8%; Cells in G2/M phase (CH1/PA-1 cells; 25 µM): 46.7 ± 1.9%; Cells in S phase (CH1/PA-1 cells; 25 µM): 38.0 ± 4.0%; Cells in G1/G0 phase (SW480 cells; 0.039 µM): 32.3 ± 12.9%; Cells in G2/M phase (SW480 cells; 0.039 µM): 30.5 ± 6.2%; Cells in S phase (SW480 cells; 0.039 µM): 38.8 ± 7.2%; Cells in G1/G0 phase (SW480 cells; 0.078 µM): 19.5 ± 4.3%; Cells in G2/M phase (SW480 cells; 0.078 µM): 35.9 ± 3.5%; Cells in S phase (SW480 cells; 0.078 µM): 46.9 ± 7.7%; Cells in G1/G0 phase (SW480 cells; 0.16 µM): 15.5 ± 1.3%; Cells in G2/M phase (SW480 cells; 0.16 µM): 27.4 ± 1.3%; Cells in S phase (SW480 cells; 0.16 µM): 57.1 ± 0.1%; Influence on pUC19 (in words) (pUC19 plasmid): only a minor influence on pUC19; Effect on NQO1 activity (in words) (NQO1 (SW480 cells); 0.1 µM and 1 µM, compared to untreated control): negligible effects; Effect on NQO1 activity (in words) (NQO1 (SW480 cells); 10 µM): lowered NQO1 activity tremendously |
| CC1=C([O-])C([O-])(n2cccn2)c2ccccc2C1=O.Cc1c(C)c(C)c(C)c(C)c1C.[Ru+2] (stereo not drawn) [Compound 6] | – | – | – | – | – | – | – | – | – | – | – | – | – | – | – | – | 22.8 ± 4.7% | 40.8 ± 2.5% | 38.6 ± 4.2% | 15.0 ± 3.8% | Cells in G1/G0 phase (CH1/PA-1 cells; 25 µM): 25.1 ± 2.5%; Cells in G2/M phase (CH1/PA-1 cells; 25 µM): 44.2 ± 7.1%; Cells in S phase (CH1/PA-1 cells; 25 µM): 35.0 ± 0.9%; Cells in G1/G0 phase (CH1/PA-1 cells; 75 µM): 25.6 ± 3.5%; Cells in G2/M phase (CH1/PA-1 cells; 75 µM): 38.4 ± 3.7%; Cells in S phase (CH1/PA-1 cells; 75 µM): 39.4 ± 2.5%; Cells in G1/G0 phase (SW480 cells; 0.16 µM): 23.2 ± 4.1%; Cells in G2/M phase (SW480 cells; 0.16 µM): 35.7 ± 0.7%; Cells in S phase (SW480 cells; 0.16 µM): 43.7 ± 4.8%; Cells in G2/M phase (SW480 cells; 0.31 µM): 32.6 ± 4.7%; Cells in S phase (SW480 cells; 0.31 µM): 53.7 ± 4.9%; Cells in G1/G0 phase (SW480 cells; 0.63 µM): 24.2 ± 2.0%; Cells in G2/M phase (SW480 cells; 0.63 µM): 25.6 ± 4.5%; Cells in S phase (SW480 cells; 0.63 µM): 53.5 ± 2.6%; Influence on pUC19 (in words) (pUC19 plasmid): only a minor influence on pUC19; Percentage amount of initial complex remaining [1]: less than 70% |
